# From patent US8906930B2, “Quinazoline derivatives” (Merck Patent GmbH, priority 2009, dated 2014)
# Molecular target: T1, Recombinant human HSP90α (Homo sapiens, UniProt P07900)
# T1 construct: host or cells: E. coli
# Experiment: HSP90 radioligand filter binding test ([3H]17AAG competition)
# Settings: radioligand [3H]17AAG 0.08 μM; HSP90 1.5 μg/assay; 22° C., 30 min; read-out: HSP90 inhibition IC50
# From the text: The binding of geldanamycin or 17-allylamino-17-demethoxygeldanamycin (17AAG) to HSP90 and competitive inhibition thereof can be utilised in order to determine the inhibitory activity of the compounds according to the invention (Carreras et al. 2003, Chiosis et al. 2002).
# In the specific case, a radioligand filter binding test is used. The radioligand used here is tritium-labelled 17-allylaminogeldanamycin, [3H]17AAG. This filter binding test allows a targeted search for inhibitors which interfere with the ATP binding site.
# Recombinant human HSP90α (E. coli expressed, 95% purity);
# [3H]17AAG (17-allylaminogeldanamycin, [allylamino-2,3-^3H. Specific activity: 1.11×10^12 Bq/mmol (Moravek, MT-1717);
# HEPES filter buffer (50 mM HEPES, pH 7.0, 5 mM MgCl2, BSA 0.01%) Multiscreen FB (1 μm) filter plate (Millipore, MAFBNOB 50).
# The 96-well microtitre filter plates are firstly irrigated and coated with 0.1% of polyethylenimine.
# The test is carried out under the following conditions:
# Reaction temperature 22° C.
# Reaction time: 30 min., shaking at 800 rpm
# 50 mM HEPES HCl, pH 7.0, 5 mM MgCl2, 0.01% (w/v) of BSA
# At the end of the reaction, the supernatant in the filter plate is removed by suction with the aid of a vacuum manifold (Multiscreen Separation System, Millipore), and the filter is washed twice.
# The filter plates are then measured in a beta counter (Microbeta, Wallac) with scintillator (Microscint 20, Packard).
# “% of control” is determined from the “counts per minutes” values, and the IC-50 value of a compound is calculated therefrom.
row,Compound,IC50 [nM]
1,NC(=O)C(CCC(F)F)c1ccc2nc(N)nc(C(=O)N3Cc4ccccc4C3)c2c1 (stereo not drawn) [Compound A4],10 to 1000
2,"NC(=O)C1(c2ccc3nc(N)nc(C(=O)N4Cc5ccccc5C4)c3c2)CCC1 [Compound A5, 1-[2-amino-4-(isoindoline-2-carbonyl)quinazolin-6-yl]cyclobutane-carboxamide]",10 to 1000
3,"CC(C)(C)NC(=O)Cc1ccc2nc(N)nc(C(=O)N3Cc4ccccc4C3)c2c1 [Compound A7, 2-[2-amino-4-(isoindoline-2-carbonyl)quinazolin-6-yl]-N-tert-butylacetamide]",1000 to 10000
4,"CCN(CC)C(=O)Cc1ccc2nc(N)nc(C(=O)N3Cc4ccccc4C3)c2c1 [Compound A8, 2-[2-amino-4-(isoindoline-2-carbonyl)quinazolin-6-yl]-N,N-diethylacetamide]",1000 to 10000
5,"CN(CCO)C(=O)Cc1ccc2nc(N)nc(C(=O)N3Cc4ccccc4C3)c2c1 [Compound A11, 2-[2-Amino-4-(isoindoline-2-carbonyl)quinazolin-6-yl]-N-(2-hydroxyethyl)-N-methylacetamide]",1000 to 10000
6,"CCN(CCO)C(=O)Cc1ccc2nc(N)nc(C(=O)N3Cc4ccccc4C3)c2c1 [Compound A12, 2-[2-Amino-4-(isoindoline-2-carbonyl)quinazolin-6-yl]-N-(2-hydroxyethyl)-N-ethylacetamide]",1000 to 10000
7,CN(Cc1cncn1C)C(=O)Cc1ccc2nc(N)nc(C(=O)N3Cc4ccccc4C3)c2c1 [Compound A19],1000 to 10000
8,"CC(C)(C)NC(=O)C1(c2ccc3nc(N)nc(C(=O)N4Cc5ccccc5C4)c3c2)CC1 [Compound A20, 1-[2-Amino-4-(isoindoline-2-carbonyl)quinazolin-6-yl]-N-tert-butylcyclopropanecarboxamide]",10 to 1000
9,"CCNC(=O)C1(c2ccc3nc(N)nc(C(=O)N4Cc5ccccc5C4)c3c2)CC1 [Compound A21, 1-[2-Amino-4-(isoindoline-2-carbonyl)quinazolin-6-yl]-N-ethylcyclopropanecarboxamide]",10 to 1000
10,"CN(C)C(=O)C1(c2ccc3nc(N)nc(C(=O)N4Cc5ccccc5C4)c3c2)CC1 [Compound A22, 1-[2-Amino-4-(isoindoline-2-carbonyl)quinazolin-6-yl]-N,N-dimethylcyclopropanecarboxamide]",1000 to 10000
11,"CCN(C)C(=O)C1(c2ccc3nc(N)nc(C(=O)N4Cc5ccccc5C4)c3c2)CC1 [Compound A23, 1-[2-Amino-4-(isoindoline-2-carbonyl)quinazolin-6-yl]-N-ethyl-N-methylcyclopropanecarboxamide]",1000 to 10000
12,"CCN(CC)C(=O)C1(c2ccc3nc(N)nc(C(=O)N4Cc5ccccc5C4)c3c2)CC1 [Compound A24, 1-[2-Amino-4-(isoindoline-2-carbonyl)quinazolin-6-yl]-N,N-diethylcyclopropanecarboxamide]",1000 to 10000
13,"CN(CCO)C(=O)C1(c2ccc3nc(N)nc(C(=O)N4Cc5ccccc5C4)c3c2)CC1 [Compound A25, 1-[2-Amino-4-(isoindoline-2-carbonyl)quinazolin-6-yl]-N-(2-hydroxyethyl)-N-methylcyclopropanecarboxamide]",1000 to 10000
14,"CCN(CCO)C(=O)C1(c2ccc3nc(N)nc(C(=O)N4Cc5ccccc5C4)c3c2)CC1 [Compound A26, 1-[2-Amino-4-(isoindoline-2-carbonyl)quinazolin-6-yl]-N-(2-hydroxyethyl)-N-ethylcyclopropanecarboxamide]",1000 to 10000
15,"Nc1nc(C(=O)N2Cc3ccccc3C2)c2cc(C3(C(=O)N4CCCC4)CC3)ccc2n1 [Compound A27, [2-Amino-6-[1-(pyrrolidine-1-carbonyl)cyclopropyl]quinazolin-4-yl]isoindolin-2-ylmethanone]",1000 to 10000
16,"CCN(CCN(C)C)C(=O)C1(c2ccc3nc(N)nc(C(=O)N4Cc5ccccc5C4)c3c2)CC1 [Compound A28, 1-[2-Amino-4-(isoindoline-2-carbonyl)quinazolin-6-yl]-N-(2-dimethylaminoethyl)-N-ethylcyclopropanecarboxamide]",1000 to 10000
17,"CC(C)(C)NC(=O)C1(c2ccc3nc(N)nc(C(=O)N4Cc5ccccc5C4)c3c2)CCC1 [Compound A29, 1-[2-Amino-4-(isoindoline-2-carbonyl)quinazolin-6-yl]-N-tert-butylcyclobutanecarboxamide]",10 to 1000
18,"CNC(=O)C1(c2ccc3nc(N)nc(C(=O)N4Cc5ccccc5C4)c3c2)CCC1 [Compound A31, 1-[2-Amino-4-(isoindoline-2-carbonyl)quinazolin-6-yl]-N-methylcyclobutanecarboxamide]",10 to 1000

# Results, then the compound that gave them:
row,IC50 [nM],Compound
1,10 to 1000,"CCOC(=O)Cc1ccc2nc(N)nc(C(=O)N3Cc4ccccc4C3)c2c1 [Compound A1, Ethyl 2-[2-amino-4-(isoindoline-2-carbonyl)quinazolin-6-yl]acetate]"
2,1000 to 10000,"Nc1nc(C(=O)N2Cc3ccccc3C2)c2cc(CC(=O)O)ccc2n1 [Compound A2, 2-[2-Amino-4-(isoindoline-2-carbonyl)quinazolin-6-yl]acetic acid]"
3,1000 to 10000,"NC(=O)Cc1ccc2nc(N)nc(C(=O)N3Cc4ccccc4C3)c2c1 [Compound A3, 2-[2-amino-4-(isoindoline-2-carbonyl)quinazolin-6-yl]acetamide]"
4,1000 to 10000,"CCNC(=O)Cc1ccc2nc(N)nc(C(=O)N3Cc4ccccc4C3)c2c1 [Compound A6, 2-[2-amino-4-(isoindoline-2-carbonyl)quinazolin-6-yl]-N-ethylacetamide]"
5,1000 to 10000,"CN(C)C(=O)Cc1ccc2nc(N)nc(C(=O)N3Cc4ccccc4C3)c2c1 [Compound A9, 2-[2-Amino-4-(isoindoline-2-carbonyl)quinazolin-6-yl]-N,N-dimethylacetamide]"
6,1000 to 10000,"CCN(C)C(=O)Cc1ccc2nc(N)nc(C(=O)N3Cc4ccccc4C3)c2c1 [Compound A10, 2-[2-Amino-4-(isoindoline-2-carbonyl)quinazolin-6-yl]-N-ethyl-N-methylacetamide]"
7,1000 to 10000,"Nc1nc(C(=O)N2Cc3ccccc3C2)c2cc(CC(=O)N3CCCC3)ccc2n1 [Compound A13, 2-[2-Amino-4-(isoindoline-2-carbonyl)quinazolin-6-yl]-1-pyrrolidin-1-ylethanone]"
8,1000 to 10000,"CC1CCCN1C(=O)Cc1ccc2nc(N)nc(C(=O)N3Cc4ccccc4C3)c2c1 (stereo not drawn) [Compound A14, 2-[2-Amino-4-(isoindoline-2-carbonyl)quinazolin-6-yl]-1-(2-methylpyrrolidin-1-yl)ethanone]"
9,1000 to 10000,"CC1CCC(C)N1C(=O)Cc1ccc2nc(N)nc(C(=O)N3Cc4ccccc4C3)c2c1 (stereo not drawn) [Compound A15, 2-[2-Amino-4-(isoindoline-2-carbonyl)quinazolin-6-yl]-1-(2,5-dimethylpyrrolidin-1-yl)ethanone]"
10,1000 to 10000,"CNC(=O)Cc1ccc2nc(N)nc(C(=O)N3Cc4ccccc4C3)c2c1 [Compound A16, 2-[2-Amino-4-(isoindoline-2-carbonyl)quinazolin-6-yl]-N-methylacetamide]"
11,1000 to 10000,"CN1CCN(C(=O)Cc2ccc3nc(N)nc(C(=O)N4Cc5ccccc5C4)c3c2)CC1 [Compound A17, 2-[2-Amino-4-(isoindoline-2-carbonyl)quinazolin-6-yl]-1-(4-methylpiperazin-1-yl)ethanone]"
12,> 10000,"Nc1nc(C(=O)N2Cc3ccccc3C2)c2cc(CC(=O)N3CCNCC3)ccc2n1 [Compound A18, 2-[2-amino-4-(isoindoline-2-carbonyl)quinazolin-6-yl]-1-piperazin-1-ylethanone]"
